Measured values reported in PubChem BioAssay (NCI).
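In this assay, cells in 96-well plates receive the compound at five concentrations for 48 hours. Endpoints are linearly interpolated between the surrounding concentrations. Definition used: TGI = concentration required for complete inhibition of growth.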

How the values were obtained:
Experiment in all cases: inhibition of tumour cell growth, NCI panel, 48 h
[1] = system: HL-60(TB) leukemia
[2] = system: OVCAR-3 ovarian
[3] = system: SNB-19 CNS
[4] = system: SR leukemia
[5] = system: UACC-257 melanoma
[6] = system: NCI-H522 lung
[7] = system: SF-268 CNS
[8] = system: OVCAR-5 ovarian
[9] = system: RXF 393 renal
[10] = system: UO-31 renal
[11] = system: SK-MEL-28 melanoma
[12] = system: HOP-62 NSCLC
[13] = system: UACC-62 melanoma
[14] = system: PC-3 prostate
[15] = system: MDA-MB-231 breast
[16] = system: OVCAR-4 ovarian
[17] = system: ACHN renal
[18] = system: HOP-92 NSCLC
[19] = system: SW-620 colon
[20] = system: NCI-H226 lung
[21] = system: A498 renal
[22] = system: DU-145 prostate
[23] = system: SK-OV-3 ovarian
[24] = system: 786-0 renal
[25] = system: A549 NSCLC
[26] = system: SF-539 CNS
[27] = system: NCI/ADR-RES ovarian
[28] = system: HCT-15 colon
[29] = system: EKVX NSCLC
[30] = system: U251 CNS
[31] = system: BT-549 breast
[32] = system: MDA-MB-435
[33] = system: MDA-N
[34] = system: SN12C renal
[35] = system: OVCAR-8 ovarian
[36] = system: MALME-3M melanoma
[37] = system: SNB-75 CNS
[38] = system: NCI-H23 lung
[39] = system: RPMI-8226 leukemia
[40] = system: SK-MEL-5 melanoma
[41] = system: K-562 leukemia
[42] = system: SF-295 CNS
[43] = system: NCI-H460 lung
[44] = system: HT29 colon
[45] = system: KM12 colon
[46] = system: COLO 205 colon
[47] = system: LOX IMVI melanoma
[48] = system: T-47D breast
[49] = system: MOLT-4 leukemia
[50] = system: HS 578T breast
[51] = system: CCRF-CEM leukemia
[52] = system: TK-10 renal
[53] = system: HCT-116 colon
[54] = system: SK-MEL-2 melanoma
[55] = system: M14 melanoma
[56] = system: MCF7 breast
[57] = system: CAKI-1 renal
[58] = system: IGROV1 ovarian

Question: How did the TGI [1] turn out when `CCC1([N+](=O)[O-])CC2C=CC1C2` (stereo unspecified) was run?
Answer: > 100 µM

Question: What about the TGI [2] of the same molecule?
Answer: > 100 µM

Question: And the TGI [3]?
Answer: > 100 µM

Question: And the TGI [4]?
Answer: > 100 µM

Question: What about the TGI [5] of the same molecule?
Answer: > 100 µM

Question: What about the TGI [6] of the same molecule?
Answer: > 100 µM

Question: And the TGI [7]?
Answer: > 100 µM

Question: What about the TGI [8] of the same molecule?
Answer: > 100 µM

Question: What about the TGI [9] of the same molecule?
Answer: > 100 µM

Question: And the TGI [10]?
Answer: > 100 µM

Question: And the TGI [11]?
Answer: > 100 µM

Question: And the TGI [12]?
Answer: > 100 µM

Question: And the TGI [13]?
Answer: > 100 µM

Question: And the TGI [14]?
Answer: > 100 µM

Question: What about the TGI [15] of the same molecule?
Answer: > 100 µM

Question: And the TGI [16]?
Answer: > 100 µM

Question: What about the TGI [17] of the same molecule?
Answer: > 100 µM

Question: What about the TGI [18] of the same molecule?
Answer: > 100 µM

Question: What about the TGI [19] of the same molecule?
Answer: > 100 µM

Question: And the TGI [20]?
Answer: > 100 µM

Question: What about the TGI [21] of the same molecule?
Answer: > 100 µM

Question: And the TGI [22]?
Answer: > 100 µM

Question: What about the TGI [23] of the same molecule?
Answer: > 100 µM

Question: What about the TGI [24] of the same molecule?
Answer: > 100 µM

Question: What about the TGI [25] of the same molecule?
Answer: > 100 µM

Question: And the TGI [26]?
Answer: > 100 µM

Question: What about the TGI [27] of the same molecule?
Answer: > 100 µM

Question: What about the TGI [28] of the same molecule?
Answer: > 100 µM

Question: And the TGI [29]?
Answer: > 100 µM

Question: What about the TGI [30] of the same molecule?
Answer: > 100 µM

Question: What about the TGI [31] of the same molecule?
Answer: > 100 µM

Question: And the TGI [32]?
Answer: > 100 µM

Question: What about the TGI [33] of the same molecule?
Answer: > 100 µM

Question: And the TGI [34]?
Answer: > 100 µM

Question: And the TGI [35]?
Answer: > 100 µM

Question: And the TGI [36]?
Answer: > 100 µM

Question: And the TGI [37]?
Answer: > 100 µM

Question: And the TGI [38]?
Answer: > 100 µM

Question: And the TGI [39]?
Answer: > 100 µM

Question: And the TGI [40]?
Answer: > 100 µM

Question: And the TGI [41]?
Answer: > 100 µM

Question: And the TGI [42]?
Answer: > 100 µM

Question: What about the TGI [43] of the same molecule?
Answer: > 100 µM

Question: What about the TGI [44] of the same molecule?
Answer: > 100 µM

Question: What about the TGI [45] of the same molecule?
Answer: > 100 µM

Question: What about the TGI [46] of the same molecule?
Answer: > 100 µM

Question: What about the TGI [47] of the same molecule?
Answer: > 100 µM

Question: What about the TGI [48] of the same molecule?
Answer: > 100 µM

Question: And the TGI [49]?
Answer: > 100 µM

Question: What about the TGI [50] of the same molecule?
Answer: > 100 µM

Question: And the TGI [51]?
Answer: > 100 µM

Question: And the TGI [52]?
Answer: > 100 µM

Question: And the TGI [53]?
Answer: > 100 µM

Question: What about the TGI [54] of the same molecule?
Answer: > 100 µM

Question: What about the TGI [55] of the same molecule?
Answer: > 100 µM

Question: What about the TGI [56] of the same molecule?
Answer: > 100 µM

Question: And the TGI [57]?
Answer: > 100 µM

Question: What about the TGI [58] of the same molecule?
Answer: > 100 µM

Question: Which results are given for `CCOC(=O)/C=C(/OCC)[C@@H]1C(C(=O)c2ccc(Cl)cc2)[C@H]1/C(=C\C(=O)OCC)OCC` (stereo partly specified)?
Answer: TGI [1]: > 100 µM; TGI [2]: > 100 µM; TGI [3]: > 100 µM; TGI [4]: > 23.6 µM; TGI [5]: > 100 µM; TGI [6]: > 100 µM; TGI [7]: > 100 µM; TGI [8]: > 100 µM; TGI [9]: > 100 µM; TGI [10]: > 100 µM; TGI [11]: > 100 µM; TGI [12]: > 100 µM; TGI [13]: > 100 µM; TGI [14]: > 100 µM; TGI [15]: > 100 µM; TGI [16]: > 100 µM; TGI [17]: > 100 µM; TGI [18]: > 100 µM; TGI [19]: > 100 µM; TGI [20]: > 100 µM; TGI [21]: > 100 µM; TGI [22]: > 100 µM; TGI [23]: > 100 µM; TGI [24]: > 100 µM; TGI [25]: > 100 µM; TGI [26]: > 100 µM; TGI [27]: > 100 µM; TGI [28]: > 100 µM; TGI [29]: > 100 µM; TGI [30]: > 100 µM; TGI [31]: > 100 µM; TGI [32]: > 100 µM; TGI [33]: > 100 µM; TGI [34]: > 100 µM; TGI [35]: > 100 µM; TGI [36]: > 100 µM; TGI [37]: > 100 µM; TGI [38]: > 100 µM; TGI [39]: > 28.8 µM; TGI [40]: > 100 µM; TGI [41]: > 25.2 µM; TGI [42]: > 100 µM; TGI [43]: > 100 µM; TGI [44]: > 100 µM; TGI [45]: > 100 µM; TGI [46]: > 100 µM; TGI [47]: > 100 µM; TGI [48]: > 100 µM; TGI [49]: > 100 µM; TGI [50]: > 100 µM; TGI [51]: > 100 µM; TGI [52]: > 100 µM; TGI [53]: > 100 µM; TGI [54]: > 100 µM; TGI [55]: > 100 µM; TGI [56]: > 100 µM; TGI [57]: > 100 µM; TGI [58]: > 100 µM
